The text below walks through data of patent US12195482B1 (Arcus Biosciences, Inc., priority 2022, dated 2025).

In one test the target is T1, Axl (Homo sapiens, UniProt P30530).
T1 sequence (P30530 26-894): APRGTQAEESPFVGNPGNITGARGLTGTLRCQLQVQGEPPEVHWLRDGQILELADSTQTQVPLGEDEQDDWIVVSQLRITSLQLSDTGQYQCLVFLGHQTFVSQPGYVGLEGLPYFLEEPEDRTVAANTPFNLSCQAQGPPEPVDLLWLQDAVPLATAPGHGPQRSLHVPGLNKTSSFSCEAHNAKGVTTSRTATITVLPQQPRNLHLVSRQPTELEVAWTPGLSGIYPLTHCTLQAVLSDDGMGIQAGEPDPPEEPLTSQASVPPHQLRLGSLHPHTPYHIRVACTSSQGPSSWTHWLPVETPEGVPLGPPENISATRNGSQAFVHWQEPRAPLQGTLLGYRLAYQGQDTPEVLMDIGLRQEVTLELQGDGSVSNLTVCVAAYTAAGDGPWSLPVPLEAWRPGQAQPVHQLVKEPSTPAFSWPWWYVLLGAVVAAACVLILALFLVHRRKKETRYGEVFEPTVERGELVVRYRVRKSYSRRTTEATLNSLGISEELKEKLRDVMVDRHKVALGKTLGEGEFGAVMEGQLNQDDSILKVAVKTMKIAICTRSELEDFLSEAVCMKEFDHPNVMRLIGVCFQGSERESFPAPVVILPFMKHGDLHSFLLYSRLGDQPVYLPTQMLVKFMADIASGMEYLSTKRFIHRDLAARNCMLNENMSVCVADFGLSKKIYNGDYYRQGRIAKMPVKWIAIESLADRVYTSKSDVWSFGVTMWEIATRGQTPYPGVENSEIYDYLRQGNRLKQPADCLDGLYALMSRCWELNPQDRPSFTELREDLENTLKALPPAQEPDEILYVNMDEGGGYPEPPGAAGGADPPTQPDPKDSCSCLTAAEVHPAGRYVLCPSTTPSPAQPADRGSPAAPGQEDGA
Nature of the test: Biochemical potency, HTRF KinEASE-TK kinase assay. To be noted: 5 nM AXL, 700 μM ATP. On the set-up: purchased Invitrogen. Summed up: (§1)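 Steps: compound plus kinase, 1 h RT; add ATP (700 µM final) and biotin-TK substrate (800 nM final); run 2 h RT; stop into streptavidin-XL665/anti-phospho cryptate detection mix, 1 h; read 665/620. AXL at 5 nM, TYRO3 and MER at 1 nM.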

For another test, the target named is T2, recombinant human TYRO3 (Homo sapiens, UniProt Q06418).
T2 construct: purchased Invitrogen
T2 sequence (Q06418 41-890): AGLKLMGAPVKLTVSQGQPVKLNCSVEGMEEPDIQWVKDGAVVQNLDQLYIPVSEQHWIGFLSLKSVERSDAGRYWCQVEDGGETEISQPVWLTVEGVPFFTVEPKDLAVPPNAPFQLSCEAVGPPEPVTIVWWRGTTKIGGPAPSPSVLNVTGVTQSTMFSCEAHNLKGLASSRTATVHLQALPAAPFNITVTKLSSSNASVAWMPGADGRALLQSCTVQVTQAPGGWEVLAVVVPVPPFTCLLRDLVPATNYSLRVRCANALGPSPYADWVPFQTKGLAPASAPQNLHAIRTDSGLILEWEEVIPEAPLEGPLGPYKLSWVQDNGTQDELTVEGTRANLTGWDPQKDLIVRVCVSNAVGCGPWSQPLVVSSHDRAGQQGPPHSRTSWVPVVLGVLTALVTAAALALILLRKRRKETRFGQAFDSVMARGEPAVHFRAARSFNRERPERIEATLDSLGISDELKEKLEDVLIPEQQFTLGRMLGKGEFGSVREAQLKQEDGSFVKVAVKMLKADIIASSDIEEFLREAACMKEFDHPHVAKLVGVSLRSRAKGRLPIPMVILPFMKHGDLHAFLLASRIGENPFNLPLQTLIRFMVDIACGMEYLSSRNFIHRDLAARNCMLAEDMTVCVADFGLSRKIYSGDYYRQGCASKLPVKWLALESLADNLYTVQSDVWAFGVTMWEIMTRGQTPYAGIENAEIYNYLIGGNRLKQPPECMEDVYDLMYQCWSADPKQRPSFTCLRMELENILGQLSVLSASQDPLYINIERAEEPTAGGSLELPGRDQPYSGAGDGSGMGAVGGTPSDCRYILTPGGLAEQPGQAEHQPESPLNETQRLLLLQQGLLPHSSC
Briefly: Biochemical potency, HTRF KinEASE-TK kinase assay. The following applies: 1 nM TYRO3, 700 μM ATP. The gist of the method: as §1
(In general: Time-resolved FRET reads energy transfer from a long-lived donor to a nearby acceptor.)

The structures appear in SMILES notation. A value given as a limit tells only on which side of the number the result lay.

Usually IC50 stands for the point on the concentration scale where inhibition reaches its midpoint. As for `c1cnc(-c2ccc(-c3n[nH]c4ncc(-c5ccc6c(c5)CC[C@@H](N5C7COCC5C7)CC6)cc34)cc2)c(O[C@@H]2CCOC2)c1` [Example 104, 6-[(7S)-2-[3-(4-{3-[(3R)—Oxolan-3-yloxy]pyridin-2-yl}phenyl)-1H-pyrazolo[3,4-b]pyridin-5-yl]-6,7,8,9-tetrahydro-5H-benzo[7]annulen-7-yl]-3-oxa-6-azabicyclo[3.1.1]heptane], the half-maximal inhibitory concentration (IC50) against Axl was < 100 nM; on recombinant human TYRO3 it was 100 to 1000 nM.

On to `c1ccc(-c2ccc(-c3n[nH]c4ncc(-c5ccc6c(c5)CC[C@@H](N5C7COCC5C7)CC6)cc34)cc2)nc1` [Example 154, 6-[(7S)-2-{3-[4-(Pyridin-2-yl)phenyl]-2H-pyrazolo[3,4-b]pyridin-5-yl}-6,7,8,9-tetrahydro-5H-benzo[7]annulen-7-yl]-3-oxa-6-azabicyclo[3.1.1]heptane], for which the results for the 50% inhibitory concentration (IC50) on Axl and at recombinant human TYRO3 were < 100 nM and 100 to 1000 nM, respectively.

In the case of `Cc1cccnc1-c1ccc(-c2n[nH]c3ncc(-c4ccc5c(c4)CC[C@@H](N[C@H]4CCCOC4)CC5)cc23)cc1` [Example 129, (3S)—N-[(7S)-2-{3-[4-(3-Methylpyridin-2-yl)phenyl]-1H-pyrazolo[3,4-b]pyridin-5-yl}-6,7,8,9-tetrahydro-5H-benzo[7]annulen-7-yl]oxan-3-amine], the IC50 on Axl and on recombinant human TYRO3 was < 100 nM in each case.

As for `CN(C)S(=O)(=O)c1cccnc1-c1ccc(-c2c[nH]c3ncc(-c4ccc5c(c4)CC[C@@H](N4C6COCC4C6)CC5)cc23)cc1` [Example 6, N,N-Dimethyl-2-(4-{5-[(7S)-7-{3-oxa-6-azabicyclo[3.1.1]heptan-6-yl}-6,7,8,9-tetrahydro-5H-benzo[7]annulen-2-yl]-1H-pyrrolo[2,3-b]pyridin-3-yl}phenyl)pyridine-3-sulfonamide], the IC50 on Axl is < 100 nM; at recombinant human TYRO3, 100 to 1000 nM.

In the case of `Cc1cc(F)cnc1-c1ccc(-c2n[nH]c3ncc(-c4ccc5c(c4)CC[C@@H](N4C6COCC4C6)CC5)cc23)cc1` [Example 28, 6-[(7S)-3-[3-[4-(5-Fluoro-3-methylpyridin-2-yl)phenyl]-1H-pyrazolo[3,4-b]pyridin-5-yl]-6,7,8,9-tetrahydro-5H-benzo[7]annulen-7-yl]-3-oxa-6-azabicyclo[3.1.1]heptane], the half-inhibitory concentration (IC50) on Axl and on recombinant human TYRO3 was < 100 nM each time.

With `CCc1cccnc1-c1ccc(-c2c[nH]c3ncc(-c4ccc5c(c4)CC[C@@H](N4C6COCC4C6)CC5)cc23)cc1` [Example 183, 6-[(7S)-2-{3-[4-(3-Ethylpyridin-2-yl)phenyl]-1H-pyrrolo[2,3-b]pyridin-5-yl}-6,7,8,9-tetrahydro-5H-benzo[7]annulen-7-yl]-3-oxa-6-azabicyclo[3.1.1]heptane], the IC50 on Axl and at recombinant human TYRO3 was < 100 nM throughout.

For the compound `c1cnc(-c2ccc(-c3c[nH]c4ncc(-c5ccc6c(c5)CC[C@@H](N5C7COCC5C7)CC6)cc34)cc2)c(C2CC2)c1` [Example 178, 6-[(7S)-2-{3-[4-(3-Cyclopropylpyridin-2-yl)phenyl]-1H-pyrrolo[2,3-b]pyridin-5-yl}-6,7,8,9-tetrahydro-5H-benzo[7]annulen-7-yl]-3-oxa-6-azabicyclo[3.1.1]heptane], the figures for the IC50 against Axl and on recombinant human TYRO3 were < 100 nM and 100 to 1000 nM, respectively.

`Cc1cc(-c2ncccc2C)ccc1-c1n[nH]c2ncc(-c3ccc4c(c3)CC[C@@H](N3C5COCC3C5)CC4)cc12` [Example 30, 6-[(7S)-3-[3-[2-Methyl-4-(3-methylpyridin-2-yl)phenyl]-1H-pyrazolo[3,4-b]pyridin-5-yl]-6,7,8,9-tetrahydro-5H-benzo[7]annulen-7-yl]-3-oxa-6-azabicyclo[3.1.1]heptane]: the IC50 against Axl was > 1000 nM; on recombinant human TYRO3 it was < 100 nM.

In the case of `O=C1CCCN1c1cccnc1-c1ccc(-c2c[nH]c3ncc(-c4ccc5c(c4)CC[C@@H](N4C6COCC4C6)CC5)cc23)cc1` [Example 7, 1-[2-(4-{5-[(7S)-7-{3-Oxa-6-azabicyclo[3.1.1]heptan-6-yl}-6,7,8,9-tetrahydro-5H-benzo[7]annulen-2-yl]-1H-pyrrolo[2,3-b]pyridin-3-yl}phenyl)pyridin-3-yl]pyrrolidin-2-one], the half-maximal inhibitory concentration (IC50) at Axl and on recombinant human TYRO3 was < 100 nM throughout.

As to `Cc1cncnc1-c1ccc(-c2n[nH]c3ncc(-c4ccc5c(c4)CC[C@@H](N4C6COCC4C6)CC5)cc23)cc1` [Example 174, 6-[(7S)-2-{3-[4-(5-Methylpyrimidin-4-yl)phenyl]-1H-pyrazolo[3,4-b]pyridin-5-yl}-6,7,8,9-tetrahydro-5H-benzo[7]annulen-7-yl]-3-oxa-6-azabicyclo[3.1.1]heptane], the IC50 on Axl and at recombinant human TYRO3 was < 100 nM throughout.

Consider `CN(C)C(=O)c1ccccc1-c1ccc(-c2n[nH]c3ncc(-c4ccc5c(c4)CC[C@@H](N4C6COCC4C6)CC5)cc23)cc1` [Example 12, N,N-Dimethyl-4′-{5-[(7S)-7-{3-oxa-6-azabicyclo[3.1.1]heptan-6-yl}-6,7,8,9-tetrahydro-5H-benzo[7]annulen-2-yl]-2H-pyrazolo[3,4-b]pyridin-3-yl}-[1,1′-biphenyl]-2-carboxamide], for which the half-inhibitory concentration (IC50) is < 100 nM on Axl and 100 to 1000 nM on recombinant human TYRO3.

Regarding `O=c1ccccn1-c1ccc(-c2n[nH]c3ncc(-c4ccc5c(c4)CC[C@@H](N4C6COCC4C6)CC5)cc23)cc1` [Example 31, 1-[4-[5-[(7S)-7-(3-Oxa-6-azabicyclo[3.1.1]heptan-6-yl)-6,7,8,9-tetrahydro-5H-benzo[7]annulen-3-yl]-1H-pyrazolo[3,4-b]pyridin-3-yl]phenyl]pyridin-2-one], the IC50 is < 100 nM against Axl and > 1000 nM at recombinant human TYRO3.

On to `Cc1cc(-c2n[nH]c3ncc(-c4ccc5c(c4)CC[C@@H](N4C6COCC4C6)CC5)cc23)ccc1-c1ccccn1` [Example 159, 6-[(7S)-2-{3-[3-Methyl-4-(pyridin-2-yl)phenyl]-2H-pyrazolo[3,4-b]pyridin-5-yl}-6,7,8,9-tetrahydro-5H-benzo[7]annulen-7-yl]-3-oxa-6-azabicyclo[3.1.1]heptane], for which the values for the concentration for half-maximal inhibition (IC50) on Axl and on recombinant human TYRO3 were < 100 nM and 100 to 1000 nM, respectively.

Regarding `c1cnc(-c2ccc(-c3n[nH]c4ncc(-c5ccc6c(c5)CC[C@@H](N5C7COCC5C7)CC6)cc34)cc2)c(C2CC2)c1` [Example 179, 6-[(7S)-2-{3-[4-(3-Cyclopropylpyridin-2-yl)phenyl]-1H-pyrazolo[3,4-b]pyridin-5-yl}-6,7,8,9-tetrahydro-5H-benzo[7]annulen-7-yl]-3-oxa-6-azabicyclo[3.1.1]heptane], the IC50 against Axl is < 100 nM; on recombinant human TYRO3, 100 to 1000 nM.

Turning to `CCc1cccnc1-c1ccc(-c2n[nH]c3ncc(-c4ccc5c(c4)CC[C@@H](N4C6COCC4C6)CC5)cc23)cc1` [Example 182, 6-[(7S)-2-{3-[4-(3-Ethylpyridin-2-yl)phenyl]-1H-pyrazolo[3,4-b]pyridin-5-yl}-6,7,8,9-tetrahydro-5H-benzo[7]annulen-7-yl]-3-oxa-6-azabicyclo[3.1.1]heptane], the concentration for half-maximal inhibition (IC50) on Axl and at recombinant human TYRO3 was < 100 nM in each case.
